Laboratory results: paper PMC8002893, “Influence of Complexation of Thiosemicarbazone Derivatives with Cu (II) Ions on Their Antitumor Activity against Melanoma Cells” (International Journal of Molecular Sciences, 2021)
“And” between values parts separate entries of the source, which are not always exact repeats. Equal values may be shown once.

How the values were obtained:
MSH2 = assay: qRT-PCR gene expression in A375 cells: MSH2; type: cell-based, human; conditions: A375, 24 h, concentration corresponding to IC50; RQ = 2^-ΔΔCt vs control
Description: (§1) The expression level of genes connected with DNA repair and oxidative stress response was evaluated with quantitative real-time PCR (qRT-PCR) method. The A375 cells were seeded in 6-well culture plates at a density 1 × 10^5 cells/mL and after 70–80% confluency achievement the cells were treated with CuT1, Cu10, CuT16 in concentrations corresponding to IC50 values or DMSO as vehicle in control cultures. After 24h of incubation total RNA was isolated using the Syngen Blood/Cell RNA Mini Kit (Syngen Biotech, Wroclaw, Poland). All samples were transcribed using NG dART RT-PCR reagents (EURx, Gdansk, Poland) according to the manufacturer’s instructions. The relative mRNA expression level was determined by relative quantification method (ΔΔCt) using 18S ribosomal N5 (RNA18SN5) and beta-actin (ACTB) as endogenous controls. The reference genes were selected on the basis of our preliminary studies, where RNA18SN5 and ACTB remained unaffected by the experimental conditions. The PCR was conducted in triplicate using Applied Biosystems® 7500 Fast Real-Time PCR system (Applied Biosystems, Foster City, CA, USA) and SG qPCR Master Mix (2×) (EURx, Gdansk, Poland) in accordance with the manufacturer’s protocol. Data was presented and analysed as RQ values (RQ = 2^−ΔΔCt).

PARP1 = assay: qRT-PCR gene expression in A375 cells: PARP1; type: cell-based, human; conditions: A375, 24 h, concentration corresponding to IC50; RQ = 2^-ΔΔCt vs control
Description: as §1

OGG1 = assay: qRT-PCR gene expression in A375 cells: OGG1; type: cell-based, human; conditions: A375, 24 h, concentration corresponding to IC50; RQ = 2^-ΔΔCt vs control
Description: as §1

CAT = assay: qRT-PCR gene expression in A375 cells: CAT; type: cell-based, human; conditions: A375, 24 h, concentration corresponding to IC50; RQ = 2^-ΔΔCt vs control
Description: as §1

XPC = assay: qRT-PCR gene expression in A375 cells: XPC; type: cell-based, human; conditions: A375, 24 h, concentration corresponding to IC50; RQ = 2^-ΔΔCt vs control
Description: as §1

SOD2 = assay: qRT-PCR gene expression in A375 cells: SOD2; type: cell-based, human; conditions: A375, 24 h, concentration corresponding to IC50; RQ = 2^-ΔΔCt vs control
Description: as §1

[1] = system: A375 human melanoma cells; assay: MTT cell viability assay, A375 melanoma; type: cell-based; conditions: for IC50: A375, MTT test, 24 h treatment; for toxicity to A375 / malignant cells versus normal cells (in words): from IC50 values, MTT, 24 h
Description: (§2) The evaluation of cytotoxicity of tested compounds was carried out on the G361, A375, and SK-MEL-28 human melanoma cells and BJ human normal fibroblast cells. The cell lines were obtained from American Type Culture Collection (ATCC, Manassas, VA, USA). The cells were cultured at 37 °C in the presence of 5% CO2 in atmosphere. The culture medium (Dulbecco’s Modified Eagle’s Medium for G361 and A375 and Eagle’s Minimum Essential Medium for SK-MEL-28 and BJ) was supplemented with 10% foetal bovine serum. The cells morphology was examined under inverted phase contrast microscope Nikon Eclipse Ti (Nikon, Tokyo, Japan). The authenticity of tested cell lines was verified by short tandem repeat (STR) genotyping in the Department of Forensic Medicine (Medical University of Lublin, Lublin, Poland).
(§3) The cells were seeded into 96-well plates (in concentration: BJ, A375, and SK-MEL-28—1 × 10^5 cells/mL, G361—1.5 × 10^5 cells/mL) and cultured until they reach 70–80% confluency. Then the cells were incubated with tested compounds and dacarbazine in concentrations ranging from 10 to 500 µM or DMSO as vehicle in control cultures for next 24 h (max. DMSO concentration <0.5%). The compounds cytotoxicity was evaluated with the MTT colorimetric method based on the ability of viable cells to the transformation of tetrazolium salts (3-[4,5-dimethylthiazol-2-yl]-2,5-) diphenyltetrazolium bromide, MTT) to purple formazan, by cellular dehydrogenases. After 24-h-incubation cell cultures were supplemented with 20 µL of 5 mg/mL MTT (Thermofisher, Waltham, MA, USA) stock in PBS (Corning, NY, USA), and the incubation was continued for 4 h at 37 °C. Next, the medium with MTT was removed, and the formed crystals were dissolved in 200 µL of DMSO (dimethyl sulfoxide, Avantor, Gliwice, Poland). The solution absorbency was measured at 570 nm, using a PowerWave™ xs microplate spectrophotometer (BioTek Instruments, Winooski, VT, USA). The experiment was performed three times with three replicates for each concentration of tested compounds. IC50 values were determined using the AAT Bioquest IC50 calculator [51]. On the basis of obtained IC50 values for normal and malignant cells, A375 cell line and three tested compounds (CuT1, Cu10, CuT16) were chosen for further investigation.

A375 cells = assay: Microscopic observation of cell morphology; type: cell-based, human; conditions: A375, 24 h, concentration corresponding to IC50
Description: The MTT test results for selected compounds were verified by microscopic observations of cell morphology. […] A large part of the cells floated in the culture medium (Figure 5).
as §2

GPX2 = assay: qRT-PCR gene expression in A375 cells: GPX2; type: cell-based, human; conditions: A375, 24 h, concentration corresponding to IC50; RQ = 2^-ΔΔCt vs control
Description: as §1

DNA of A375 cells = assay: DNA damage evaluation: number of AP sites; type: cell-based, human; conditions: A375, 24 h, concentration corresponding to IC50; control 0.67 ± 0.08
Description: DNA damage was evaluated on the basis of a basic (AP) sites presence, that arose in response to oxidative damage or as an intermediate in base excision repair pathway. The A375 cells were seeded in 6-well culture plates at a density 1 × 10^5 cells/mL and after 70–80% confluency achievement the cells were treated with CuT1, Cu10, CuT16 in concentrations corresponding to IC50 values or DMSO as vehicle in control cultures. After 24 h of incubation genomic DNA was isolated using Syngen DNA Mini Kit (Syngen Biotech, Wroclaw, Poland) according to the manufacturer’s instruction. The concentrations of isolated DNA for all samples were equalized to 100 µg/mL. The measurements of the number of AP sites were evaluated with DNA Damage Quantification Kit (Dojindo, Japan) according to the manufacturer’s instruction. The DNA was treated with Aldehyde Reactive Probe (ARP) to tag all of the AP sites with a biotin residue. Then all of the AP sites were quantified using avidin—biotin assay. The coloured product of horseradish peroxidase conjugated to the avidin was detected at 650 nm using a PowerWave™ xs microplate spectrophotometer (BioTek Instruments, Winooski, VT, USA).

MGMT = assay: qRT-PCR gene expression in A375 cells: MGMT; type: cell-based, human; conditions: A375, 24 h, concentration corresponding to IC50; RQ = 2^-ΔΔCt vs control
Description: as §1

[2] = system: SK-MEL-28 human melanoma cells; assay: MTT cell viability assay, SK-MEL-28 melanoma; type: cell-based; conditions: SK-MEL-28, MTT test, 24 h treatment
Description: as §2, §3

ATM = assay: qRT-PCR gene expression in A375 cells: ATM; type: cell-based, human; conditions: A375, 24 h, concentration corresponding to IC50; RQ = 2^-ΔΔCt vs control
Description: as §1

[3] = system: G361 human melanoma cells; assay: MTT cell viability assay, G361 melanoma; type: cell-based; conditions: G361, MTT test, 24 h treatment
Description: as §2, §3

ERCC = assay: qRT-PCR gene expression in A375 cells: ERCC; type: cell-based, human; conditions: A375, 24 h, concentration corresponding to IC50; RQ = 2^-ΔΔCt vs control
Description: as §1

[4] = system: BJ human normal fibroblast cells; assay: MTT cell viability assay, BJ normal fibroblasts; type: cell-based; conditions: MTT test, 24 h treatment
Description: as §2, §3

MLH1 = assay: qRT-PCR gene expression in A375 cells: MLH1; type: cell-based, human; conditions: A375, 24 h, concentration corresponding to IC50; RQ = 2^-ΔΔCt vs control
Description: as §1

Structure (SMILES)	Mean RQ MSH2 mRNA (MSH2)	Mean RQ PARP1 mRNA (PARP1)	Mean RQ OGG1 mRNA (OGG1)	Mean RQ CAT mRNA (CAT)	Mean RQ XPC mRNA (XPC)	Mean RQ SOD2 mRNA (SOD2)	IC50 [1] [µM]	toxicity to A375 / malignant cells versus normal cells (in words) [1]	cell morphology (in words) (A375 cells)	Mean RQ GPX2 mRNA (GPX2)	AP sites number (DNA of A375 cells) [AP/100 kbp]	Mean RQ MGMT mRNA (MGMT)	IC50 [2] [µM]	Mean RQ ATM mRNA (ATM)	IC50 [3] [µM]	Mean RQ ERCC mRNA (ERCC)	IC50 [4] [µM]	Mean RQ MLH1 mRNA (MLH1)
COc1ccc(C=NNC(=S)Nc2ccccc2Cl)cc1OC.COc1ccc(C=NNC(=S)Nc2ccccc2Cl)cc1OC.[Cl-].[Cl-].[Cu+2] [CuT10]	1.337	0.342	0.264 ± 0.071 and 0.264	0.801	1.456	1.430	26.1 ± 1.75	less toxic for normal cells	became round and had poor adherence	0.022	2.043 ± 0.02	0.448	133 ± 8.34	2.038	251 ± 11.1	1.215	203 ± 8.67	0.337
COc1ccc(C=NNC(=S)Nc2ccccc2)cc1OC.[Cl-].[Cl-].[Cu+2] [CuT1]	0.973	0.908	0.902	0.773	1.038	1.510	69.9 ± 1.87	less toxic for normal cells	became round and had poor adherence	0.000	20.24 ± 0.19	0.715	130 ± 3.98	1.452	136 ± 7.01	0.401	257 ± 4.45	1.001
